“Also recorded” adds a separate entry of the source.
Key:
LNCaP cells [1] = assay: MTT assay / cell counting, LNCaP cell growth; assay type: cell-based, human; details: for DHT-mediated LNCaP cell growth: 8% CS-FBS with 5 nM DHT
Procedure: Cells were harvested at the time indicated. […] Cells were harvested at the time indicated. […] Cell growth was determined by the MTT assay. The control group was cultured in 0.1% (vol/vol) ethanol and was set at 100%.
All the cell growth was determined by cell counting and MTT assay. Control group contained 0.1% (v/v) ethanol and was set at 100%.
LNCaP cells were cultured in RPMI medium with 8% FBS, and treated with 10^−5M of the indicated reagent Cells were harvested at the time indicated in the figure. All the cell growth was determined by cell counting and MTT assay. Control group contained 0.1% (v/v) ethanol and was set at 100%.
The human prostate cancer cell line LNCaP was obtained from the American Type Culture collection (Rockville, Md.). Fibroblast cell was primarily cultured from normal prostate tissue. LNCaP cells were propagated in 12-well, 60 mm or 100 mm culture dishes at the desired density in RPMI 1640 medium (Gibco, Rockville, Md.) supplemented with 8% fetal bovine serum (FBS) (Gibco, Rockville, Md.) at 37° C. and 5% CO2 until reaching 60%-80% confluence or were grown in phenol red-free RPMI medium 1640 with 8% fetal bovine serum (FBS). The fibroblast cells were maintained in DMEM (Gibco, Rockville, Md.) with 10% FBS. […] During the treatment, the medium was changed every 4 days and fresh compounds were added every 2 days.
The MTT assay is a quantitative colorimetric assay for mammalian cell survival and proliferation (13, 16). The 5×10^4 LNCaP cells were seeded in 12-well plates. After 36-48 h, the medium was changed to phenol red free RPMI1640 with 8 % FBS or CS-FBS for another 2, 4, and 6 days, with different compound treatment with or without ligand. At the end of each time period treatment, 200 μl of MTT (5 mg/ml; Sigma) was added into the each well with 1 ml of medium for 3 h at 37° C. After incubation, 2 ml of 0.04 M HCl in isopropyl alcohol was added into each well. After 30-min shaking at room temperature and several pippettings, the absorbency was read at a test wavelength of 595 nm. The 2×10^5 fibroblast cells were seeded in each well of 6-well dishes. […] For cell counting, cells were trypsinized, neutralized by medium, and counted on hemocytometers. Fibroblast cells were seeded at 2×10^5 per well in 6-well plates, and cell growth assays were conducted by using the same MTT assay used for LNCaP cells.

PSA = PSA expression in LNCaP cells (Western and Northern blotting); assay type: cell-based, human; details: for PSA expression: Western blotting (FIG. 9); for PSA expression at mRNA and protein levels: 5 nM DHT, 10 μM VES, Western and Northern blotting
Procedure: (§1) Cells without treatment were harvested on day 2 and used as a control. Western blotting was used to detect the expression of PSA protein. Actin served as an internal control. […] Cells were harvested on days 1, 2, and 3 for Northern blotting analysis. β-Actin served as an internal control. […] The transfections were performed at least three times and presented as an average±SD. […] LNCaP cells without any treatment harvested on the first day (day 0) is used as a control. Western blotting was applied to detect the expression of PSA protein level. […] Cells were harvested on day 1, 2, and 3 for Northern blotting analyses. (G). […] The transfections were performed three times and presented as an average: bar-denotes standard deviation.
Protein harvested from cells without treatment on the first day (day 0) was used as a control. Fifty micrograms of whole-cell lysate was subjected to Western blotting assay.
LNCaP cells were cultured in RPMI medium with 8% FBS, and treated with […] of the indicated reagent. Proteins harvested from cells without treatment on day 2 were used as a control. 60 micrograms of whole cell lysate was subjected to Western blotting assay.
(§2) Total protein lysate from LNCaP cells was prepared as previously described (Yeh, PNAS). After separation of 50 μg protein by SDS-PAGE gel, proteins were transferred by electrophoresis to Immobilon-P membrane (Millipore Corp., Bedford, Mass.) and incubated in PBS with 0.1% Tween-20 and 10% FCS for 2 h. Primary antibodies specific for human AR, PSA, and β-actin were diluted in PBS with 0.1% Tween-20 (PBST) as described in manual and incubated at room temperature for 2 h. Membranes were washed in PBST (three times, 10 min each time) and incubated with AP-conjugated secondary antibody which was diluted as described in manual in PBST and incubated for 2 h in room temperature, washed in PBST (three times, 10 min each time). The proteins were detected by AP western blotting reagents.
Cells were harvest after 1, 2, and 3 days treatment. Total RNA was extracted using Trizol, according to manufacturer's directions (GIBCO). Total RNA (20 μg) was electrophoresed though formaldehyde-agarose gels and transferred to Hybond-N+ membrane (Amersham Pharmacia Biotech) according the company's protocol (17).
For Northern blots, the fragments of the human PSA, AR, and β-actin cDNA were labeled with [^32P]-dCTP using the random primed DNA labeling kit from Amersham Pharmacia Biotech. Membranes were prehybridized, hybridized, and washed using Rapid-hyb system from Amersham Pharmacia Biotech, according to the manufacturer's user manual. The mRNA was detected using phosphorimager screen system (Molecular Dynamics).

AR [2] = assay: AR expression in LNCaP cells (Western and Northern blotting); assay type: cell-based, human; details: for AR expression: Western blotting (FIG. 9); for AR expression at the protein level: Western blotting, Suc or SM, 10 nM Vit D
Procedure: Cells were harvested at different time points. Twenty-five micrograms of RNA and 50 μg of protein collected from the same culture dish were applied for Northern blotting and Western blotting assays, respectively (45). The amount of actin is shown as a control. […] LNCaP cells without treatment were harvested on day 2 and used as a control. Whole-cell lysates were subjected to Western blotting assay using primary antibodies for AR, VDR, PPAR, or RXR. […] Protein harvested from cells without treatment on the first day (day 0) was used as a control. Fifty micrograms of whole-cell lysate was subjected to Western blotting assay. […] LNCaP cells were cultured in RPMI medium with 8% FBS, and treated with […] of the indicated reagent. Proteins harvested from cells without treatment on day 2 were used as a control. 60 micrograms of whole cell lysate was subjected to Western blotting assay. Total protein lysate from LNCaP cells was prepared as previously described (Yeh, PNAS). […] Membranes were washed in PBST (three times, 10 min each time) and incubated with AP-conjugated secondary antibody which was diluted as described in manual in PBST and incubated for 2 h in room temperature, washed in PBST (three times, 10 min each time). The proteins were detected by AP western blotting reagents. […] Cells were harvest after 1, 2, and 3 days treatment. Total RNA was extracted using Trizol, according to manufacturer's directions (GIBCO). Total RNA (20 μg) was electrophoresed though formaldehyde-agarose gels and transferred to Hybond-N+ membrane (Amersham Pharmacia Biotech) according the company's protocol (17). For Northern blots, the fragments of the human PSA, AR, and β-actin cDNA were labeled with [^32P]-dCTP using the random primed DNA labeling kit from Amersham Pharmacia Biotech. Membranes were prehybridized, hybridized, and washed using Rapid-hyb system from Amersham Pharmacia Biotech, according to the manufacturer's user manual. The mRNA was detected using phosphorimager screen system (Molecular Dynamics).

PSA6.0-Luc = assay: PSA promoter luciferase reporter (PSA6.0-Luc) in LNCaP cells; assay type: cell-based, human; details: 5 nM DHT, 10 μM VES or Suc
Procedure: as §1

human TAP (hTAP) = human TAP (hTAP) (Homo sapiens, UniProt O76054); details: recombinant hTAP; read-out: Kd of binding to recombinant hTAP; cited from earlier work
[3] = system: primary cultured fibroblasts from normal prostate tissue; assay: MTT assay, primary cultured prostate fibroblast growth; assay type: cell-based; details: 10 μM VES, 10% FBS DMEM
SP1 = assay: GAL4-SP1 transactivation (pG5-Luc) in COS-1 cells; assay type: cell-based; details: 10 μM VES
AR [4] = assay: In vivo AR radioligand competition binding assay in LNCaP cells; parameters: species or system human
Procedure: [^3H]R1881-binding without competition was set at 100%. […] (B) AR N-C dimerization.
LNCaP cells were plated into 60-mm dishes and grown to 60% confluence. […] After 1-h incubation, cells were harvested by lysis buffer (PBS with 1% Triton X-100). Equal protein amounts of cell extract were subjected to binding assays, which were terminated by adding hydroxylapatite. Each sample was filtered by using a sampling manifold (Millipore) and unbound ligand was removed by washing. Filter papers that contained bound ligand were transferred to counting vials containing 5 ml of liquid scintillation fluid and counted with a multipurpose scintillation counter (Beckman).

AR [5] = assay: AR translocation / immunostaining; assay type: cell-based
Description: Whether VES could influence translocation of AR was examined.

PPARα = assay: PPAR expression in LNCaP cells (Western blotting); assay type: cell-based, human
Procedure: (§3) Cells were harvested at different time points. Twenty-five micrograms of RNA and 50 μg of protein collected from the same culture dish were applied for Northern blotting and Western blotting assays, respectively (45). The amount of actin is shown as a control. […] LNCaP cells without treatment were harvested on day 2 and used as a control. Whole-cell lysates were subjected to Western blotting assay using primary antibodies for AR, VDR, PPAR, or RXR.
as §2

RXRα = assay: RXR expression in LNCaP cells (Western blotting); assay type: cell-based, human; details: 10 μM VES
Procedure: as §3, §2

LNCaP cells [6] = assay: MTT assay / cell counting, LNCaP cell growth; assay type: cell-based, human; details: 10 μM VES, 4 days, phase-contrast
[7] = RPMI 8% FBS, 10^−5M reagent, cell counting and MTT (FIGS. 8 and 10)
[8] = 8% FBS without DHT, HF 5 μM, VES 10 μM, MTT

human TAP (hTAP), sequence (O76054 whole entry): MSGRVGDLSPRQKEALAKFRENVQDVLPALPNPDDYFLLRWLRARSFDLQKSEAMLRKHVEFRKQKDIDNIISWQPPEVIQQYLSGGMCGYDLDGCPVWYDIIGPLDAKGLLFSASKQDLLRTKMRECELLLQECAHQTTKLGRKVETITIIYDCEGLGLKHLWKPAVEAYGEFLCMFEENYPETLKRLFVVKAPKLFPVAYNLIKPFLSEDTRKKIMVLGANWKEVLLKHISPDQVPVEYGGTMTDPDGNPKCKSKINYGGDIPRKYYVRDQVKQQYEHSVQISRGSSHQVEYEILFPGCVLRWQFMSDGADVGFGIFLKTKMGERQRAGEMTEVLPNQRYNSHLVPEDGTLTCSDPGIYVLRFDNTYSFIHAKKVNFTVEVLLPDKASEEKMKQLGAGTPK

## Cc1c(C)c2c(c(C)c1O)CC[C@@](C)(CCC[C@H](C)CCC[C@H](C)CCCC(C)C)O2 [α-Vit E, alpha—tocopherol]
LNCaP cells [1]; [7]
  LNCaP cell growth: can inhibit
PSA; LNCaP, 8% FBS
  PSA expression: can also inhibit
AR [2]; 8% FBS
  AR expression: can also inhibit

## O=C(O)CCC(=O)O [Suc, succinic acid]
PSA6.0-Luc
  DHT induced PSA6.0-Luc activity: not
AR [2]; 10 μM VES
  AR expression at the protein level: not

## C=C1/C(=C\C=C2/CCC[C@]3(C)[C@@H]([C@H](C)CCCC(C)(C)O)CC[C@@H]23)C[C@@H](O)C[C@@H]1O [Vit D, 1α, 25-dihydroxyvitamin D3]
LNCaP cells [1]; [7]
  LNCaP cell growth: can inhibit
AR [2]; 10 μM VES
  AR expression at the protein level: not

## C[C@]12CCC(=O)C[C@@H]1CC[C@@H]1[C@@H]2CC[C@]2(C)[C@@H](O)CC[C@@H]12 [DHT, 5-dihydrotestosterone]
LNCaP cells [1]; 8% CS-FBS, DHT 5 nM, MTT
  LNCaP cell growth: can stimulate
PSA; LNCaP
  PSA expression at mRNA and protein levels: induced
PSA6.0-Luc
  DHT induced PSA6.0-Luc activity: induced

## C[Se]CC[C@H](N)C(=O)O [SM, selenomethionine]
LNCaP cells [1]; 10 μM SM, after 4 days treatment
  LNCaP cell growth: growth inhibition
PSA; LNCaP, 8% FBS, 10 μM SM, Western blot
  PSA expression (protein): no effect
AR [2]; 10 μM VES
  AR expression at the protein level: no effect

## Cc1c(O)cc2c(c1C)O[C@](C)(CCC[C@H](C)CCC[C@H](C)CCCC(C)C)CC2 [γ-Vit E, (+)-γ-tocopherol]
LNCaP cells [1]; [7]
  LNCaP cell growth: can inhibit
PSA; LNCaP, 8% FBS
  PSA expression: do not efficiently inhibit
AR [2]; 8% FBS
  AR expression: do not efficiently inhibit

## Cc1c(C)c2c(c(C)c1O)CCC(C)(CCCC(C)CCCC(C)CCCC(C)C)O2 (centres unmarked) [vitamin E]
Human TAP (hTAP)
  Kd: 460 nM

## Cc1c(C)c2c(c(C)c1OC(=O)CCC(=O)O)CCC(C)(CCCC(C)CCCC(C)CCCC(C)C)O2 (stereo not drawn) [VES, RRR-α-tocopheryl succinate]
LNCaP cells [1]; HF 5 μM, VES 10 μM, MTT
  DHT-mediated LNCaP cell growth: effectively represses
LNCaP cells [1]; [8]
  LNCaP cell growth: inhibits; also recorded: differentially inhibit
LNCaP cells [1]; [7]
  LNCaP cell growth: can inhibit; also recorded: most effective compound; also recorded: most effective isoform
[3]
  prostate fibroblast cell growth: only a marginal inhibitory effect and not
PSA; LNCaP cells in normal serum or androgen-stimulated conditions
  intracellular and secreted levels of PSA: decreases
PSA; LNCaP, 8% FBS
  PSA expression: most effective isoform
PSA; LNCaP
  PSA expression at mRNA and protein levels: effectively repressed
PSA6.0-Luc
  DHT induced PSA6.0-Luc activity: repressed
SP1
  GAL4-SP1 transcription activity: did not significantly inhibit
AR [2]; 8% FBS, 10 μM VES, Northern and Western blotting
  AR mRNA and protein expression: inhibits
AR [2]; 8% FBS
  AR expression: most effective isoform
AR [2]; 10 μM VES
  AR expression at the protein level: could suppress
AR [4]; 10 μM VES pretreatment 24 h, 2.5 nM [3H]R1881
  influence on AR ligand binding: little influence
AR [5]
  AR distribution between cytosol and nucleus: little influence
  total AR-staining intensity: reduced
PPARα; 10 uM VES
  PPARr expression: little effect
PPARα; 10 μM VES
  PPARα expression: little effect
RXRα
  RXRα expression: little effect
LNCaP cells [6]
  morphologic change of LNCaP cells: most of the cells dying

## CC(=O)Oc1c(C)c(C)c2c(c1C)CCC(C)(CCC[C@H](C)CCC[C@H](C)CCCC(C)C)O2 (stereo partly drawn) [VEA, α-Vit E acetate]
PSA; LNCaP, 8% FBS
  PSA expression: do not efficiently inhibit
AR [2]; 8% FBS
  AR expression: do not efficiently inhibit

## C[C@]1(O)CC[C@H]2[C@@H]3CCC4=CC(=O)CCC4=C3C=C[C@@]21C [R1881, reference compound]
AR [4]; 2.5 nM [3H]R1881, 100-fold excess unlabeled R1881 (250 nM)
  specific binding of [3H]R1881 competed: 95%

## CC(C)(O)C(=O)Nc1ccc([N+](=O)[O-])c(C(F)(F)F)c1 [HF, hydroxyflutamide]
LNCaP cells [1]; HF 5 μM, VES 10 μM, MTT
  DHT-mediated LNCaP cell growth: fails to repress
LNCaP cells [1]; [8]
  LNCaP cell growth: induces LNCaP cell growth at day 2, with the induction gradually diminishing after day 4

From US20040248971A1, “Use of vitamin e succinate and antiandrogen combination” (priority 2001, published 2004)
